Results from US12714688B2, “Margaric acid decreases PIEZ02-mediated pain” (The United States of America, as represented by The …, priority 2020, dated 2026).
Entries after “also recorded” stand apart in the source; their conditions may differ.

What was measured:
rat DRG neurons = test: Current-clamp recording of action potentials elicited by mechanical stimuli in rat DRG neurons; settings: 300 μM
Experimental: N2A^Piezo1−/− cells were cultured in Dulbecco's Modified Eagle Medium (DMEM), 5% penicillin streptomycin and 10% fetal bovine serum (FBS); MCC13 cells were cultured in RPMI 1640 (with 2 mM L-glutamine+25 mM HEPES; Sigma), 5% penicillin-streptomycin and 10% FBS and; DRG neurons were cultured in DMEM, 1% penicillin-streptomycin, 1% MEM vitamin solution, 1% L-glutamine, and 10% horse serum. […] The cultured cells were maintained at 37° C., 95% relative humidity, and 5% CO2.
For whole-cell recordings, the bath solution contained 140 mM NaCl, 6 mM KCl, 2 mM CaCl2), 1 mM MgCl2, 10 mM glucose, and 10 mM HEPES (pH 7.4; 300 mOsm). […] Pipettes were made out of borosilicate glass (Sutter Instruments) and were fire-polished before use until a resistance between 3 and 5 MΩ was reached.
During mechanical stimulation, currents were recorded at a constant voltage (−60 mV, voltage-clamp), and voltages were recorded without injecting current (current-clamp). Both variables were sampled at 100 kHz and low-pass filtered at 10 kHz using a MultiClamp™ 700 B amplifier and Clampex (Molecular Devices, LLC). To measure voltage-dependent currents, a square-pulse protocol consisting of 40-ms 20-mV incremental steps starting from −80 mV in 500-ms intervals with P/4 subtraction was used; and to record action potentials evoked by current injection, 40-ms 20-pA incremental steps were injected in 500-ms intervals. […]

mouse DRG neurons [1] = test: Electrical excitability of mouse DRG neurons (voltage-gated currents, membrane potential, current injection); format: cell-based
Piezo2 V14 = test: Whole-cell patch-clamp of N2A^Piezo1−/− cells transfected with Piezo2 V14; settings: 300 μM; 18 h
Experimental: (§3) Cell culture and electrophysiology: Piezo1 knock-out mouse N2A (N2A^Piezo1−/−) cells were a gift from Dr. Gary R. Lewin, human Merkel cell carcinoma cell line (MCC13 cells; Cell Bank Australia reference number: CBA1338) were obtained from Sigma, and DRG neurons were obtained from sacrificed mice. N2A^Piezo1−/− cells were cultured in Dulbecco's Modified Eagle Medium (DMEM), 5% penicillin streptomycin and 10% fetal bovine serum (FBS); MCC13 cells were cultured in RPMI 1640 (with 2 mM L-glutamine+25 mM HEPES; Sigma), 5% penicillin-streptomycin and 10% FBS and; DRG neurons were cultured in DMEM, 1% penicillin-streptomycin, 1% MEM vitamin solution, 1% L-glutamine, and 10% horse serum. Prior to electrophysiological measurements, N2A^Piezo1−/−, MCC13 and DRG neurons were supplemented overnight (≈18 h) with MA. […] MA was obtained from Nu-Chek Prep, INC. The cultured cells were maintained at 37° C., 95% relative humidity, and 5% CO2.
(§4) For whole-cell recordings, the bath solution contained 140 mM NaCl, 6 mM KCl, 2 mM CaCl2), 1 mM MgCl2, 10 mM glucose, and 10 mM HEPES (pH 7.4; 300 mOsm). […]
(§5) During mechanical stimulation, currents were recorded at a constant voltage (−60 mV, voltage-clamp), and voltages were recorded without injecting current (current-clamp). […]

Piezo2 V16 = test: Whole-cell patch-clamp of N2A^Piezo1−/− cells transfected with Piezo2 V16; settings: 300 μM; 18 h
Experimental: as §3, §4, §5

mice [2] = test: Von Frey test after acute inflammation by topical AITC; format: in vivo, mouse; settings: MA treatment for 7 days, then AITC
Experimental: (§1) Mice behavior: MA solution: MA was prepared in sterile Dulbecco's phosphate buffered saline, with 70 g/L fatty acid free bovine serum albumin (BSA; Sigma), and MA to a final concentration of 5 mM. The solution was filtered to avoid undissolved materials.
(§2) Subjects: For the experiment 8-12 weeks old male and female C57B16/J mice (N=12; control n=6; male=3, female=3) MA (n=6; male=3, female=3) per experiment were used. Mice were housed under a 12 hr light dark cycle and granted access to food and water ad libitum.
Treatment: Animals were put in two groups (control and MA) and given injections in the plantar of the left hind paw for 7 days prior behavioral assessment. Injections were given as follows: Mouse is restrained by their tail, foot, and over shoulders scruff. […]
Mechanical threshold (Von Frey test): Punctate mechanical allodynia was measured using Von Frey monofilaments (Stoelting, Inc.) in varying grams of force (0.008-1 g). Animals were placed in small enclosures over a wire mesh and the plantar of the hind paw was poked with a filament and responses were recorded. Withdrawal responses were recorded when the animal lifted, shook, or licked the paw in response to stimulus presentation. […]

mice [3] = test: Hargreaves radiant heat test after daily hind paw injection; format: in vivo, mouse; settings: MA 5 mM injected daily into hind paw for 7 days
Experimental: as §1, §2
Treatment: Animals were put in two groups (control and MA) and given injections in the plantar of the left hind paw for 7 days prior behavioral assessment. Injections were given as follows: Mouse is restrained by their tail, foot, and over shoulders scruff. The compound is delivered using a 3/10 cc insulin syringe into the plantar surface of the back foot of each mouse. The beveled needle is inserted at a 35-40° angle and 20-50 μl of the compound is injected subcutaneously. The needle is held in place for several seconds before being removed and the animal is returned to its home cage. […]
Thermal threshold (Hargreaves test): Animals were placed in small enclosures over a glass plate heated to 32° C. […] The latency for each rodent to withdraw the paw is recorded with three stimulus presentations administered per paw. […]

[4] = test system: PIEZO2-PIEZO1 beam chimera; test: Whole-cell patch-clamp of N2A^Piezo1−/− cells transfected with Piezo2-Piezo1 beam chimera
Experimental: as §3
(§6) For whole-cell recordings, the bath solution contained 140 mM NaCl, 6 mM KCl, 2 mM CaCl2), 1 mM MgCl2, 10 mM glucose, and 10 mM HEPES (pH 7.4; 300 mOsm). The pipette solution for voltage-clamp recordings contained: 140 mM CsCl, 5 mM EGTA, 1 mM CaCl2), 1 mM MgCl2, and 10 mM HEPES (pH 7.2); and for current clamp recordings: 140 mM KCl, 6 mM NaCl, 2 mM CaCl2), 1 mM MgCl2, 10 mM glucose, and 10 mM HEPES (pH 7.4; 300 mOsm); MA and bradykinin acetate salt (Sigma) perfused during experiments were dissolved in the bath solution to a final concentration of 300 μM for 2 min, and 1 μM for 5 min respectively; and for long exposure experiments bradykinin was supplemented to the culture medium and added to the cells 18-24 h prior recording. For cytoskeleton disruption experiments, N2A^Piezo1−/− were incubated in media supplemented with 1 μM latrunculin A (Cayman Chemicals) for 1 h prior recordings. […]
as §5

mouse DRG neurons [5] = test: Current-clamp recording of action potentials elicited by mechanical stimuli in mouse DRG neurons; format: cell-based
Excerpt: Subsequent sweeps had increments of 1 μm.

mouse PIEZO2 [6] = test: Whole-cell patch-clamp with mechanical indentation of N2A^Piezo1−/− cells transfected with Piezo2 variant 2 (V2); settings: from IC50 values
Experimental: as §3
(§7) For whole-cell recordings, the bath solution contained 140 mM NaCl, 6 mM KCl, 2 mM CaCl2), 1 mM MgCl2, 10 mM glucose, and 10 mM HEPES (pH 7.4; 300 mOsm). The pipette solution for voltage-clamp recordings contained: 140 mM CsCl, 5 mM EGTA, 1 mM CaCl2), 1 mM MgCl2, and 10 mM HEPES (pH 7.2); and for current clamp recordings: 140 mM KCl, 6 mM NaCl, 2 mM CaCl2), 1 mM MgCl2, 10 mM glucose, and 10 mM HEPES (pH 7.4; 300 mOsm); MA and bradykinin acetate salt (Sigma) perfused during experiments were dissolved in the bath solution to a final concentration of 300 μM for 2 min, and 1 μM for 5 min respectively; and for long exposure experiments bradykinin was supplemented to the culture medium and added to the cells 18-24 h prior recording. For cytoskeleton disruption experiments, N2A^Piezo1−/− were incubated in media supplemented with 1 μM latrunculin A (Cayman Chemicals) for 1 h prior recordings. Pipettes were made out of borosilicate glass (Sutter Instruments) and were fire-polished before use until a resistance between 3 and 5 MΩ was reached.
(§8) During mechanical stimulation, currents were recorded at a constant voltage (−60 mV, voltage-clamp), and voltages were recorded without injecting current (current-clamp). Both variables were sampled at 100 kHz and low-pass filtered at 10 kHz using a MultiClamp™ 700 B amplifier and Clampex (Molecular Devices, LLC). […] Leak currents before mechanical stimulations were subtracted off-line from the current traces and data were digitally filtered at 2 kHz with ClampFit (Molecular Devices, LLC).
(§9) Mechanical stimulation: For indentation assays, N2A^Piezo1−/−, MCC13 DRG neurons, and human iPSC374 derived neurons were mechanically stimulated with a heat-polished blunt glass pipette (3-4 μm) driven by a piezo servo controller (E625, Physik Instrumente). The blunt pipette was mounted on a micromanipulator at an ~45° angle and positioned 3-4 μm above from the cells without indenting them. Displacement measurements were obtained with a square-pulse protocol consisting of 1 μm incremental indentation steps, each lasting 200 ms with a 2-ms ramp in 10-s intervals. The threshold of mechano-activated currents for each experiment was defined as the indentation step that evoked the first current deflection from the baseline.

mouse PIEZO2 [7] = molecular target: mouse PIEZO2 (Mus musculus, UniProt Q8CD54); test: as above; settings: for IC50: IC50 of inhibition of PIEZO2 currents, mean±SEM
Experimental: as §3, §7, §8, §9

human PIEZO2 = human PIEZO2 (Homo sapiens, UniProt Q9H5I5); test: Whole-cell patch-clamp of N2A^Piezo1−/− cells transfected with human Piezo2; settings: 300 μM; 18 h
Experimental: as §3, §4, §5

[8] = molecular target: endogenous PIEZO2 currents in MCC13 (Homo sapiens, UniProt Q9H5I5); test: Whole-cell patch-clamp of mechanically stimulated MCC13 cells; settings: 300 μM
Experimental: as §3, §6, §5

[9] = test system: mechano-activated currents of DRG neurons; test: Bradykinin sensitization of mechano-activated currents in mouse DRG neurons; format: cell-based

Chain of endogenous PIEZO2 currents in MCC13 (Q9H5I5 whole entry): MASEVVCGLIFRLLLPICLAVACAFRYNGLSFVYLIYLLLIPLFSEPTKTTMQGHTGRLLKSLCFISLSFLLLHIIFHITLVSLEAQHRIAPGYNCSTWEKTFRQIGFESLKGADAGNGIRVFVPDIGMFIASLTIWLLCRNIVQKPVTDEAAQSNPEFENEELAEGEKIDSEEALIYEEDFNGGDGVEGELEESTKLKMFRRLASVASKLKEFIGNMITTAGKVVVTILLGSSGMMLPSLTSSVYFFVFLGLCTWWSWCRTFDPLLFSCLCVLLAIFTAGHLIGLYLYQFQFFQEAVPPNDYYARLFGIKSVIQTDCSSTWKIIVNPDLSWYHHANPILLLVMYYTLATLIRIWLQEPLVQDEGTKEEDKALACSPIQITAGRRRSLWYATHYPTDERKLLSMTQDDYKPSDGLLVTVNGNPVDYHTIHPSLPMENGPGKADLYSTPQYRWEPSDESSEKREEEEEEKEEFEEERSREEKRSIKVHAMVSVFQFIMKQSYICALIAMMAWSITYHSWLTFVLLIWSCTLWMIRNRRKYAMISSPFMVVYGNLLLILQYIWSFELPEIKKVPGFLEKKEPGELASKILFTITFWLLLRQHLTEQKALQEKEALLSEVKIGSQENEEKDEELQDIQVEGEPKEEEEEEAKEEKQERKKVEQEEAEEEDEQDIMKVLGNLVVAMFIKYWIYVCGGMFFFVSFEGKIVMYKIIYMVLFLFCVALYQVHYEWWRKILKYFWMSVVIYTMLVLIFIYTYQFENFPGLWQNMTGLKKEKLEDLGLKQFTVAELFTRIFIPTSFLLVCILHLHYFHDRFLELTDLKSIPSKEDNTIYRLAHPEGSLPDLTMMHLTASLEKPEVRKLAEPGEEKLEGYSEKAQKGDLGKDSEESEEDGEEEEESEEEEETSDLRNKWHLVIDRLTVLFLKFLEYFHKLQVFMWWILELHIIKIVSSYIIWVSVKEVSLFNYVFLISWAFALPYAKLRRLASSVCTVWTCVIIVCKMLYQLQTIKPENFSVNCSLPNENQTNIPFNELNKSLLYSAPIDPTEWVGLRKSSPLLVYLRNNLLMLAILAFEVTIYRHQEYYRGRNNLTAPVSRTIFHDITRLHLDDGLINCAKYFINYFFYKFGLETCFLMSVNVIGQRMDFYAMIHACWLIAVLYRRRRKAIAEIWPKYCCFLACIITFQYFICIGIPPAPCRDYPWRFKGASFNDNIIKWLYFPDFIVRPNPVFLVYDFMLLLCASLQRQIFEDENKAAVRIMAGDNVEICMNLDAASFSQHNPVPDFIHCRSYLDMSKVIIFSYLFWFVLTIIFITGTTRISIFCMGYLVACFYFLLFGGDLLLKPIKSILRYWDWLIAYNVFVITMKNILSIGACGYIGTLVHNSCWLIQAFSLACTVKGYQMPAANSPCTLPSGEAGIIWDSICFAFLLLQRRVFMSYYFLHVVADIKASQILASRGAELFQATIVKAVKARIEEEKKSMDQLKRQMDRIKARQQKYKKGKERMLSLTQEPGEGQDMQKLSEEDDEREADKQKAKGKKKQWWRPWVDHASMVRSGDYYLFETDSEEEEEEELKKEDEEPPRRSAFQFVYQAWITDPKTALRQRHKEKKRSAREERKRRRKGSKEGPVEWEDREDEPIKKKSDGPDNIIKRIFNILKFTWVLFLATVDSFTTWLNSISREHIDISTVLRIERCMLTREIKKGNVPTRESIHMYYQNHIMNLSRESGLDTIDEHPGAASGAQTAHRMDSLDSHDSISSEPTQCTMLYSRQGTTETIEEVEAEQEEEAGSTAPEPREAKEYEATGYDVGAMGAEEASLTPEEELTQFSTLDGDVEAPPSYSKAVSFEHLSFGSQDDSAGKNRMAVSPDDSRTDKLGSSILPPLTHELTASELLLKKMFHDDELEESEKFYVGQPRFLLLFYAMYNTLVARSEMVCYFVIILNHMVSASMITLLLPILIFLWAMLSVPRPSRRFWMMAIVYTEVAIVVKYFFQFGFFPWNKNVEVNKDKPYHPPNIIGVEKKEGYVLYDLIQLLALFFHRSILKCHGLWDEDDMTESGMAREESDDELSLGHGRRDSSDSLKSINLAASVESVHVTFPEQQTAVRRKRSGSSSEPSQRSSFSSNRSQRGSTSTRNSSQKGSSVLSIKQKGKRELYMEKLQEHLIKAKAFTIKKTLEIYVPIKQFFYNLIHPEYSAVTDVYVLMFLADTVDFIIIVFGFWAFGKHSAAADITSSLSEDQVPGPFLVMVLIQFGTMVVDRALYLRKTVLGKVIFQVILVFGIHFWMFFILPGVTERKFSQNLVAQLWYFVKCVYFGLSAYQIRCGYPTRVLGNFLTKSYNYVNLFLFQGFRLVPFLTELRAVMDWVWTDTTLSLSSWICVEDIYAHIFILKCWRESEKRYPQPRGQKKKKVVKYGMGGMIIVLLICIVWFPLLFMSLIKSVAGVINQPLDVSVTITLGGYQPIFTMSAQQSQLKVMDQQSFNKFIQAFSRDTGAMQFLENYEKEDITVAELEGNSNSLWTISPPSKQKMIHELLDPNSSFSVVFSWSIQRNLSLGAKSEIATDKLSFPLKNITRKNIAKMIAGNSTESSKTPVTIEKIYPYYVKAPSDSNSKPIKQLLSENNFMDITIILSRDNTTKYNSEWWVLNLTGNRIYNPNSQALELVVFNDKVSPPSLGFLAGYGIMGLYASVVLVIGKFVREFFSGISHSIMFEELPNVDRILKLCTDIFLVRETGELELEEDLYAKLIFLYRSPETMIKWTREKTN
Chain of human PIEZO2 (Q9H5I5 whole entry): as above

## CCCCCCCCCCCCCCCCC(=O)O [MA, heptadecanoic acid]
Rat DRG neurons
  action potential firing elicited by mechanical stimuli: reduces neuronal action potential firing elicited by mechanical stimuli
Mouse DRG neurons [1]; 300 μM
  electrical excitability: does not alter mouse DRG neurons electrical excitability; also recorded: does not alter DRG neuronal electrical excitability
Mouse DRG neurons [1]; 300 μM vs control
  action potential firing elicited by current injection: no difference in action potential firing elicited by current injection
  amplitudes of voltage-activated inward Na+ and outward K+ currents: no significant differences
Mouse DRG neurons [1]; 300 μM, whole-cell configuration
  membrane potential: did not alter membrane potential
Piezo2 V14
  effect on activity of Piezo2 V14: inhibited the activity
Piezo2 V16
  effect on activity of Piezo2 V16: inhibited the activity
Mice [2]
  responses to von Frey filaments after topical AITC: does not increase hyper-responsivity to punctate stimuli; also recorded: responded with sensitivities similar to their basal response
Mice [3]
  thermal withdrawal latencies / hyper-responsiveness to heat: did not affect the ability of mice to sense thermal stimuli; also recorded: has no effect on this hyper-responsiveness to heat; also recorded: had no effect on thermal withdrawal latencies
[4]; 100 μM overnight, compared with PIEZO2
  sensitivity of chimera to MA inhibition: much more sensitive to MA inhibition
[4]; MA 100 μM overnight
  mechanical stimulus needed to open chimera: requires a higher mechanical stimulus to open
Mouse DRG neurons [5]; 300 μM
  action potential firing elicited by mechanical stimuli: reduces neuronal action potential firing elicited by mechanical stimuli; also recorded: decreases action potentials elicited by mechanical stimuli; also recorded: specifically decrease action potential firing evoked by mechanical stimulation
Mouse DRG neurons [5]; 300 μM, control 7-12 μm
  indentation steps eliciting action potentials: 12 μm
Mouse DRG neurons [5]; 300 μM, indentation steps smaller than 12 μm
  action potential generation: completely inhibits action potential generation
Mouse DRG neurons [5]; MA supplementation
  mechanical threshold required to fire action potentials: increases the mechanical threshold required for DRG neurons to fire action potentials
Mouse DRG neurons [5]; MA-enriched neurons vs control
  action potentials evoked by 1 Hz mechanical stimulus trains: evoked less action potentials than the control
Mouse PIEZO2 [6]
  times more MA needed to inhibit PIEZO2 than PIEZO1: ~ 7 times
Mouse PIEZO2 [7]; 50 μM each day for 4 days
  effect on PIEZO2 inactivation: without altering PIEZO2 inactivation
  effect on displacement threshold: increases the displacement threshold
Mouse PIEZO2 [7]; 50 μM each day over four days
  decrease of PIEZO2 currents: 65%
Mouse PIEZO2 [7]; 1-600 μM overnight
  effect on PIEZO2 currents: inhibits heterologously-expressed mouse PIEZO2 currents; also recorded: inhibits PIEZO2 currents in a concentration-dependent manner
Mouse PIEZO2 [7]; MA 1-600 μM overnight (18 h), normalized current densities at maximum displacement, Boltzmann fit
  IC50: 191 ± 14.7 µM
Mouse PIEZO2 [7]; latrunculin A-treated cells, MA 1-600 μM 18 h plus latrunculin A 1 μM for 1 h
  IC50: 75.4 ± 13.3 µM
Mouse PIEZO2 [7]; overnight supplementation
  MA concentration required to decrease PIEZO2 currents: higher than 100 μM
  effect on time constant of inactivation: without affecting the time constant of inactivation
  increase of displacement threshold required to elicit PIEZO2 currents vs control cells: three fold
Human PIEZO2
  mechano-currents of human PIEZO2: confirmed these results
[8]
  effect on displacement threshold: increasing the displacement threshold
  effect on mechano-activated (endogenous PIEZO2) currents: decreases mechano-activated currents; also recorded: decreases endogenous PIEZO2 currents
[9]; MA 300 μM 18 h, bradykinin 1 μM perfusion, 10 μm displacement, mean±SD, control 3.36±1.68
  current density after bradykinin administration: 3.64±1.96 pA/pF
[9]; MA 300 μM 18 h, acute bradykinin 1 μM
  mechano-currents after sensitization with bradykinin: decreases the mechano-currents, even after sensitization with bradykinin
[9]; bradykinin 1 μM and MA 300 μM, 18 h both
  current densities after combined overnight incubation with bradykinin: restored the current densities to those of control neurons
